Assays:
HiBiT-BRM = target: T1, HiBiT-BRM (Homo sapiens, UniProt P51531); assay: HiBiT-BRM cell-based degradation assay (Nano-Glo HiBiT Lytic Detection); conditions: HeLa cells expressing HiBiT-BRM, 24 h; for DC50: read-out: BRM HiBit Degradation IC50
T1 construct: expressed in transfected cells
Method in brief: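 HeLa cells stably expressing HiBiT-tagged BRM were treated for 24 h, then lysed with LgBiT-containing Nano-Glo reagent and luminescence read. % degradation scaled between DMSO (high control) and 2 μM reference BRM/BRG1 degrader (low control).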

HiBit-BRG1 = target: T2, HiBit-BRG1 (Homo sapiens, UniProt P51532); assay: HiBit-BRG1 cell-based degradation assay (Nano-Glo HiBiT Lytic Detection); conditions: HeLa cells expressing HiBit-BRG1 and LgBit, 24 h; for DC50: read-out: BRG1 HiBit Degradation IC50; for Dmax: read-out: BRG1 HiBit Degradation Maximum (%)
T2 construct: expressed in transfected cells
Method in brief: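 Stable HeLa line co-expressing HiBit-BRG1 and LgBit, 5000 cells/well, treated 24 h in a tissue culture incubator. Lysed with Nano-Glo HiBiT lytic reagent, luminescence read. % degradation normalized to DMSO (high control) and 2 μM reference BRM/BRG1 degrader (low control).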

T2 sequence (P51532 whole entry): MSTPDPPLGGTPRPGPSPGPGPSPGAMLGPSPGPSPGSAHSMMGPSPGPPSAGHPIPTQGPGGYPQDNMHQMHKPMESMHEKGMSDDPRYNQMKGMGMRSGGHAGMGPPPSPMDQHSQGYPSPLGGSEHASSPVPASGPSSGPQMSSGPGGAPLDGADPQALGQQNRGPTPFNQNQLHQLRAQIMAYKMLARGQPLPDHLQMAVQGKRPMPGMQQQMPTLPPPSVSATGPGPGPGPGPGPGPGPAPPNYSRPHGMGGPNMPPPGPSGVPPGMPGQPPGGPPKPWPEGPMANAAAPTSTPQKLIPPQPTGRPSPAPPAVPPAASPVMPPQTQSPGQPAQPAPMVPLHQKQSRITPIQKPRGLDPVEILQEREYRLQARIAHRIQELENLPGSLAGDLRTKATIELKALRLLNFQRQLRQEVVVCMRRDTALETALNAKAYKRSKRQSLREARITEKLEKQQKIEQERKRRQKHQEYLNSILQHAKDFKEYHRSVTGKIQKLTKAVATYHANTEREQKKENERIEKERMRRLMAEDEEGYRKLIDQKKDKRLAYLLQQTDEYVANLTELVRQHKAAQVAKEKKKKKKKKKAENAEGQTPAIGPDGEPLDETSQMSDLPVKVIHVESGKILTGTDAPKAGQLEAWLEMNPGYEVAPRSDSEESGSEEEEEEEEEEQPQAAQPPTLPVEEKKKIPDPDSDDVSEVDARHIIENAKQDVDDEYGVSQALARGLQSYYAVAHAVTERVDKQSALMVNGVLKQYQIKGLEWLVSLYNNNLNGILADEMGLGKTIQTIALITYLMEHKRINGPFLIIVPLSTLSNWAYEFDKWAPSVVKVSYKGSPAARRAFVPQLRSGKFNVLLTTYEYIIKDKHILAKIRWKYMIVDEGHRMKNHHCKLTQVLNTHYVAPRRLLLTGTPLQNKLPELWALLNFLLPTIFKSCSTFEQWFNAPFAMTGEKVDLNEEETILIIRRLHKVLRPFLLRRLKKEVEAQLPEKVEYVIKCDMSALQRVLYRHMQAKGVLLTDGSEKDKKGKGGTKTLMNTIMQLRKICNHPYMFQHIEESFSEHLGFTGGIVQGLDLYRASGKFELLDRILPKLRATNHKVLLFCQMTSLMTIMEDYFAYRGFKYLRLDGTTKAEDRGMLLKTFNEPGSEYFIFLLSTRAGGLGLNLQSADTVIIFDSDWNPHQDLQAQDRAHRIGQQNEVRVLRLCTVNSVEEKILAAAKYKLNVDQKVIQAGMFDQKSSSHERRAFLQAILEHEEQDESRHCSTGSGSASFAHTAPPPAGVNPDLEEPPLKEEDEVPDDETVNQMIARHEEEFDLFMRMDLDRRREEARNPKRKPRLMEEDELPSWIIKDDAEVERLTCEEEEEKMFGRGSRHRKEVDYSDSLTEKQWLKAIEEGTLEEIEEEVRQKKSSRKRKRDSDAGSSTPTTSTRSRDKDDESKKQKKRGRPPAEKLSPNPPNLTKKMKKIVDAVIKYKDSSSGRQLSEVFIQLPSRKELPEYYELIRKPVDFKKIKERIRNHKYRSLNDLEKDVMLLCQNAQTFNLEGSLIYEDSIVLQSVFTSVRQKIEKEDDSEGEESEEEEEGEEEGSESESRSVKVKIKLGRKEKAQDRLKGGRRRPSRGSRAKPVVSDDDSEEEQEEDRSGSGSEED
T1 sequence (P51531 whole entry): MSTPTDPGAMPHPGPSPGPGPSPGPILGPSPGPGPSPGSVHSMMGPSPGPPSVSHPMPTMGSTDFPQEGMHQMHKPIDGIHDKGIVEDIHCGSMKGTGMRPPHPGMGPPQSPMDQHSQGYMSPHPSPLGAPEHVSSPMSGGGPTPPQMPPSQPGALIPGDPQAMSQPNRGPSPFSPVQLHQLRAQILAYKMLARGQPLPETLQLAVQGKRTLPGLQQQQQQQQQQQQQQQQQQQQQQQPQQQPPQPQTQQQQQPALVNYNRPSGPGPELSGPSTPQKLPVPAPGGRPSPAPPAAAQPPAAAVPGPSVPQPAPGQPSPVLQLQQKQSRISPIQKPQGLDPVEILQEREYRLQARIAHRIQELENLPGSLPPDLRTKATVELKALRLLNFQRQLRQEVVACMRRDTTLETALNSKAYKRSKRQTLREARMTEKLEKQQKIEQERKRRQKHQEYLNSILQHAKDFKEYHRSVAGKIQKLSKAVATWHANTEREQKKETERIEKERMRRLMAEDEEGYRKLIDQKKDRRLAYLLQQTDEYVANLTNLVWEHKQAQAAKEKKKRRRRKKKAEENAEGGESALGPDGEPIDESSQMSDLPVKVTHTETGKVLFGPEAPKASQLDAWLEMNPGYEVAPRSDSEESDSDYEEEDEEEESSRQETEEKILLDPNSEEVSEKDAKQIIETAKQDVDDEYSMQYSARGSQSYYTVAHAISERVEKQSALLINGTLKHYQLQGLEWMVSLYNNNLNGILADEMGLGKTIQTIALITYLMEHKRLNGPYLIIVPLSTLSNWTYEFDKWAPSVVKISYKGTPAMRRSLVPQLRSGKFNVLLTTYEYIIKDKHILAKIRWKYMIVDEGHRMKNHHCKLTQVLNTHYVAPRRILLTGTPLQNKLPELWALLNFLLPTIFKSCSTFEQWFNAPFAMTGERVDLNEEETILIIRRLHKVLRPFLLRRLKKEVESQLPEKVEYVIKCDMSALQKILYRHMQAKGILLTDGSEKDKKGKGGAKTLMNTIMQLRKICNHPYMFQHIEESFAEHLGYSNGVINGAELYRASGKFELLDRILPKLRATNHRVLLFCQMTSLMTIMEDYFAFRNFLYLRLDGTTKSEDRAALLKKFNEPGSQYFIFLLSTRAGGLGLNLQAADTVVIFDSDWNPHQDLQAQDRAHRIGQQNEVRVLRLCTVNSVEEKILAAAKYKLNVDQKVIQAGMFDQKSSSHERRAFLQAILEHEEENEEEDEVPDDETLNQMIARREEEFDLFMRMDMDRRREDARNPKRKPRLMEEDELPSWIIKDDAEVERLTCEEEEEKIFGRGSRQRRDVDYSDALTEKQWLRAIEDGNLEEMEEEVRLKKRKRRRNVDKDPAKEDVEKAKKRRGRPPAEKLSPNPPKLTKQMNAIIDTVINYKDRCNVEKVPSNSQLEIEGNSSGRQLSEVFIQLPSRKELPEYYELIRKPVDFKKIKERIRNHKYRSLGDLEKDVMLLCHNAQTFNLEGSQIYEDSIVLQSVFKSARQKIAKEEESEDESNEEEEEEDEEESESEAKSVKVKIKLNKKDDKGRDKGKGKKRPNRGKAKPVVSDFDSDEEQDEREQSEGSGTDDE

SMILES | BRM HiBit Degradation Maximum (%) (HiBiT-BRM) | DC50 (HiBiT-BRM) [µM] | DC50 (HiBit-BRG1) [µM] | Dmax (HiBit-BRG1) [%]
Cc1ncsc1-c1ccc(CNC(=O)[C@@H]2C[C@@H](O)CN2C(=O)[C@@H](NC(=O)CCCC(=O)NCc2ccc(CCOc3cc(-c4ccccc4O)nnc3N)cc2)C(C)(C)C)cc1 [Compound 34] | B (“B” indicates maximum degradation ≥50%) | > 1 | > 1 | < 50
Cc1ncsc1-c1ccc(CNC(=O)[C@@H]2C[C@@H](O)CN2C(=O)[C@@H](NC(=O)CCCCCCCCCCCCCC(=O)NCc2ccc(CCOc3cc(-c4ccccc4O)nnc3N)cc2)C(C)(C)C)cc1 [Compound 35, N1-(4-(2-((3-amino-6-(2-hydroxyphenyl)pyridazin-4-yl)oxy)ethyl)benzyl)-N15-((S)-1-((2S,4R)-4-hydroxy-2-((4-(4-methylthiazol-5-yl)benzyl)carbamoyl)pyrrolidin-1-yl)-3,3-dimethyl-1-oxobutan-2-yl)pentadecanediamide] | A (“A” indicates maximum degradation ≥75%) | > 0.01 | > 1 | < 50
Cc1ncsc1-c1ccc(CNC(=O)[C@@H]2C[C@@H](O)CN2C(=O)[C@@H](NC(=O)CCCCCCCCCCCCC(=O)NCc2ccc(CCOc3cc(-c4ccccc4O)nnc3N)cc2)C(C)(C)C)cc1 [Compound 36] | B (“B” indicates maximum degradation ≥50%) | > 0.01 | > 1 | < 50
Cc1ncsc1-c1ccc(CNC(=O)[C@@H]2C[C@@H](O)CN2C(=O)[C@@H](NC(=O)CCCCCCCCCCC(=O)NCc2ccc(CCOc3cc(-c4ccccc4O)nnc3N)cc2)C(C)(C)C)cc1 [Compound 37] | B (“B” indicates maximum degradation ≥50%) | > 0.1 | > 1 | < 50
Cc1ncsc1-c1ccc(CNC(=O)[C@@H]2C[C@@H](O)CN2C(=O)[C@@H](NC(=O)COCCOCCOCC(=O)NCc2ccc(CCOc3cc(-c4ccccc4O)nnc3N)cc2)C(C)(C)C)cc1 [Compound 38, (2S,4R)-1-[(2S)-2-[2-(2-[2-[([[4-(2-[[3-amino-6-(2-hydroxyphenyl)pyridazin-4-yl]oxy]ethyl)phenyl]methyl]carbamoyl)methoxy]ethoxy]ethoxy)acetamido]-3,3-dimethylbutanoyl]-4-hydroxy-N-[[4-(4-methyl-1,3-thiazol-5-yl)phenyl]methyl]pyrrolidine-2-carboxamide] | B (“B” indicates maximum degradation ≥50%) | > 1 | > 1 | < 50
Cc1ncsc1-c1ccc(CNC(=O)[C@@H]2C[C@@H](O)CN2C(=O)[C@@H](NC(=O)COCCOCCOCCOCC(=O)NCc2ccc(CCOc3cc(-c4ccccc4O)nnc3N)cc2)C(C)(C)C)cc1 [Compound 39] | C (“C” indicates maximum degradation <50%) | > 1 | > 1 | < 50
Cc1ncsc1-c1ccc(CNC(=O)[C@@H]2C[C@@H](O)CN2C(=O)[C@@H](NC(=O)CCCCCCCCCCCCCCC(=O)NCc2ccc(CCOc3cc(-c4ccccc4O)nnc3N)cc2)C(C)(C)C)cc1 [Compound 40, N1-(4-(2-((3-amino-6-(2-hydroxyphenyl)pyridazin-4-yl)oxy)ethyl)benzyl)-N16-((S)-1-((2S,4R)-4-hydroxy-2-((4-(4-methylthiazol-5-yl)benzyl)carbamoyl)pyrrolidin-1-yl)-3,3-dimethyl-1-oxobutan-2-yl)hexadecanediamide] | A (“A” indicates maximum degradation ≥75%) | > 0.1 | > 1 | < 50
Nc1nnc(-c2ccccc2O)cc1OCCc1ccc(C(=O)NCCCCCCCCNC(=O)COc2cccc3c2C(=O)N(C2CCC(=O)NC2=O)C3=O)cc1 (stereo not drawn) [Compound 41, N-(8-[[4-(2-[[3-amino-6-(2-hydroxyphenyl)pyridazin-4-yl]oxy]ethyl)phenyl]formamido]octyl)-2-[[2-(2,6-dioxopiperidin-3-yl)-1,3-dioxoisoindol-4-yl]oxy]acetamide] | C (“C” indicates maximum degradation <50%) | > 1 | > 1 | < 50
Nc1nnc(-c2ccccc2O)cc1OCCc1ccc(C(=O)NCCCCNc2ccc3c(c2)C(=O)N(C2CCC(=O)NC2=O)C3=O)cc1 (stereo not drawn) [Compound 42, 4-(2-[[3-amino-6-(2-hydroxyphenyl)pyridazin-4-yl]oxy]ethyl)-N-(4-[[2-(2,6-dioxopiperidin-3-yl)-1,3-dioxoisoindol-5-yl]amino]butyl)benzamide] | C (“C” indicates maximum degradation <50%) | > 1 | > 1 | < 50
Nc1nnc(-c2ccccc2O)cc1OCCc1ccc(C(=O)NCCOCCOCCNc2cccc3c2C(=O)N(C2CCC(=O)NC2=O)C3=O)cc1 (stereo not drawn) [Compound 43, 4-(2-[[3-amino-6-(2-hydroxyphenyl)pyridazin-4-yl]oxy]ethyl)-N-[2-[2-(2-[[2-(2,6-dioxopiperidin-3-yl)-1,3-dioxoisoindol-4-yl]amino]ethoxy)ethoxy]ethyl]benzamide] | C (“C” indicates maximum degradation <50%) | > 1 | > 1 | < 50
Nc1nnc(-c2ccccc2O)cc1OCCc1ccc(C(=O)NCCCCCCCCNc2cccc3c2C(=O)N(C2CCC(=O)NC2=O)C3=O)cc1 (stereo not drawn) [Compound 44, 4-(2-((3-amino-6-(2-hydroxyphenyl)pyridazin-4-yl)oxy)ethyl)-N-(8-((2-(2,6-dioxopiperidin-3-yl)-1,3-dioxoisoindolin-4-yl)amino)octyl)benzamide] | B (“B” indicates maximum degradation ≥50%) | > 0.1 | > 1 | < 50
Cc1nc2cccc(NCCCCCCCCNC(=O)c3ccc(CCOc4cc(-c5ccccc5O)nnc4N)cc3)c2c(=O)n1C1CCC(=O)NC1=O (stereo not drawn) [Compound 45, 4-(2-[[3-amino-6-(2-hydroxyphenyl)pyridazin-4-yl]oxy]ethyl)-N-(8-[[3-(2,6-dioxopiperidin-3-yl)-2-methyl-4-oxoquinazolin-5-yl]amino]octyl)benzamide] | C (“C” indicates maximum degradation <50%) | > 1 | > 1 | < 50
Nc1nnc(-c2ccccc2O)cc1OCCc1ccc(C(=O)NCCCCCCNc2ccc3c(c2)C(=O)N(C2CCC(=O)NC2=O)C3=O)cc1 (stereo not drawn) [Compound 46, 4-(2-[[3-amino-6-(2-hydroxyphenyl)pyridazin-4-yl]oxy]ethyl)-N-(6-[[2-(2,6-dioxopiperidin-3-yl)-1,3-dioxoisoindol-5-yl]amino]hexyl)benzamide] | C (“C” indicates maximum degradation <50%) | > 1 | > 1 | < 50
Cc1ncsc1-c1ccc(CNC(=O)[C@@H]2C[C@@H](O)CN2C(=O)[C@@H](NC(=O)CCCCCCCCCNC(=O)c2ccc(CCOc3cc(-c4ccccc4O)nnc3N)cc2)C(C)(C)C)cc1 [Compound 47, (2S,4R)-1-[(2S)-2-(10-[[4-(2-[[3-amino-6-(2-hydroxyphenyl)pyridazin-4-yl]oxy]ethyl)phenyl]formamido]decanamido)-3,3-dimethylbutanoyl]-4-hydroxy-N-[[4-(4-methyl-1,3-thiazol-5-yl)phenyl]methyl]pyrrolidine-2-carboxamide] | B (“B” indicates maximum degradation ≥50%) | > 0.1 | > 1 | < 50
Cc1nc2cccc(NCCOCCOCCNC(=O)c3ccc(CCOc4cc(-c5ccccc5O)nnc4N)cc3)c2c(=O)n1C1CCC(=O)NC1=O (stereo not drawn) [Compound 48, 4-(2-[[3-amino-6-(2-hydroxyphenyl)pyridazin-4-yl]oxy]ethyl)-N-[2-[2-(2-[[3-(2,6-dioxopiperidin-3-yl)-2-methyl-4-oxoquinazolin-5-yl]amino]ethoxy)ethoxy]ethyl]benzamide] | C (“C” indicates maximum degradation <50%) | > 1 | > 1 | < 50
Nc1nnc(-c2ccccc2O)cc1OCCc1ccc(C(=O)N2CCC(C3CCN(C(=O)COc4cccc5c4C(=O)N(C4CCC(=O)NC4=O)C5=O)CC3)CC2)cc1 (stereo not drawn) [Compound 49, 4-(2-(1′-(4-(2-((3-amino-6-(2-hydroxyphenyl)pyridazin-4-yl)oxy)ethyl)benzoyl)-[4,4′-bipiperidin]-1-yl)-2-oxoethoxy)-2-(2,6-dioxopiperidin-3-yl)isoindoline-1,3-dione] | C (“C” indicates maximum degradation <50%) | > 1 | > 1 | < 50
Nc1nnc(-c2ccccc2O)cc1OCCc1ccc(C(=O)NCCCCCNc2cccc3c2C(=O)N(C2CCC(=O)NC2=O)C3=O)cc1 (stereo not drawn) [Compound 50, 4-(2-((3-amino-6-(2-hydroxyphenyl)pyridazin-4-yl)oxy)ethyl)-N-(5-((2-(2,6-dioxopiperidin-3-yl)-1,3-dioxoisoindolin-4-yl)amino)pentyl)benzamide] | C (“C” indicates maximum degradation <50%) | > 1 | > 1 | < 50
Nc1nnc(-c2ccccc2O)cc1OCCc1ccc(C(=O)NCCCCCNc2ccc3c(c2)C(=O)N(C2CCC(=O)NC2=O)C3=O)cc1 (stereo not drawn) [Compound 51, 4-(2-[[3-amino-6-(2-hydroxyphenyl)pyridazin-4-yl]oxy]ethyl)-N-(5-[[2-(2,6-dioxopiperidin-3-yl)-1,3-dioxoisoindol-5-yl]amino]pentyl)benzamide] | C (“C” indicates maximum degradation <50%) | > 1 | > 1 | < 50

Reference: US20230150974A1 (Foghorn Therapeutics Inc., priority 2020, published 2023)
